Earlier results, collected in patent publication US20050186294A1 (priority 1999, published 2005).
Where two headings read alike, the source gives them in different places. Values belong to the molecule of their own block, whether it stands above or below them.

Columns and labels:
[1] = larger molecular weight molecules such as Testosterone
[2] = tested on: penile erection; details: oral, men
[3] = target: 5 Phosphodiesterase (Homo sapiens, UniProt O76074); details: in vitro, similar Molar concentrations
[4] = tested on: cGMP
[5] = after oral arginine supplementation (6 g)

increase of membrane permeability [1]: 2-4 times
Structure (SMILES): CC1CCC(C(C)C)C(O)C1 (stereo not drawn) [Menthol]

Structure (SMILES): CCCc1nn(C)c2c(=O)[nH]c(-c3cc(S(=O)(=O)N4CCN(C)CC4)ccc3OCC)nc12 [sildenafil]
effectiveness to create a penile erection ([2]; after first use): 54%
effectiveness to create a penile erection ([2]; by the eighth use): 86%
inhibition of 5 Phosphodiesterase activity [3]: 85%

Structure (SMILES): N=C(N)NCCC[C@H](N)C(=O)O [L-arginine]
L-arginine level in the blood (after infusion of 6 g): 822 nM/ml
L-arginine level in the blood (after infusion of 30 g): 6223 nmol/mL
blood concentration [5]: 310 µM
detectable cGMP excretion rates in urine ([4]; after infusion of 30 g and 6 g): rise in detectable cGMP excretion rates in urine
increases in detectable cGMP [4, 5]: not statistically significant
